{
  "source": "patent EP4585059A1",
  "about": "“EFFERVESCENT POUCHED PRODUCT” (Nicoventures Trading Limited, priority 2024, dated 2025)",
  "origin": "cited, not measured here",
  "data": [
    {"settings": "Values obtained from PubChem or calculated", "values": [
      {"compound": "CC(C)[C@@H]1CC[C@@H](C)C[C@H]1OC(=O)CCC(=O)O", "note": "[monomenthyl succinate]", "log(P)*": 3},
      {"compound": "ethyl benzoic acid", "log(P)*": 2.9},
      {"compound": "isopropyl benzoic acid", "log(P)*": 3.5}
    ]},
    {"settings": "water / aqueous environment (e.g., saliva)", "values": [
      {"compound": "CC(/C=C/C=C(C)/C=C/C(=O)O)=C\\C=C\\C=C(C)\\C=C\\C=C(C)\\C=C\\C(=O)O", "note": "(stereo in doubt) [norbixin, (2E,4E,6E,8E,10E,12E,14E,16E,18E)-4,8,13,17-tetramethylicosa-2,4,6,8,10,12,14,16,18-nonaenedioic acid]", "solubility in water": "water-soluble"},
      {"compound": "C=C(C)[C@@H]1CCC(C)=C[C@H]1c1c(O)cc(CCCCC)cc1O", "note": "[CBD, cannabidiol]", "solubility in water": "insoluble"},
      {"compound": "COC(=O)/C=C/C(C)=C\\C=C\\C(C)=C\\C=C\\C=C(C)\\C=C\\C=C(C)\\C=C\\C(=O)O", "note": "[bixin, (2E,4E,6E,8E,10E,12E,14E,16Z,18E)-20-methoxy-4,8,13,17-tetramethyl-20-oxoicosa-2,4,6,8,10,12,14,16,18-nonaenoic acid]", "solubility in water": "insoluble in water"}
    ]}
  ]
}
